The values that follow come from patent US8158621B2, “Methods of treating or preventing autoimmune diseases with 2,4-pyrimidinediamine compounds” (Rigel Pharmaceuticals, Inc., priority 2002, dated 2012).

Some results are limits rather than exact numbers.

For one test, the system named is Human Jurkat T-cells (clone N). Put plainly: Jurkat T-cell activation (anti-TCR, CD69 upregulation). Format: cell-based.
Settings: not given
In outline:
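Jurkat cells in RPMI + 5% FBS preincubated with compound 1 h at 37 °C, then stimulated with anti-TCR C305 at 500 ng/ml for 20 h. CD69 surface expression stained with anti-CD69-APC and read by flow cytometry; IC50 versus solvent-only control.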
As to `COC(=O)c1cc2cc(Nc3ncc(F)c(Nc4ccc5c(c4)C(=O)OC5)n3)ccc2o1` [Compound R940294], the IC50 (usually the point on the concentration scale where inhibition reaches its midpoint) was over 10 µM. Same read-out and setting: in the case of `CN(CCO)C(=O)COc1cccc(Nc2ncc(F)c(Nc3ccc4c(c3)OCCO4)n2)c1` [Compound R926766] it was 4.24 µM; in that of `CNC(=O)COc1cccc(Nc2ncc(F)c(Nc3ccc(Cl)c(-c4nc5ccccc5s4)c3)n2)c1` [Compound R926900], over 10 µM.

`O=[N+]([O-])c1ccc(NCCO)c(Nc2ccnc(Nc3cc([N+](=O)[O-])ccc3NCCO)n2)c1` [Compound R950156] had an IC50 of over 10 µM. Same read-out and setting: to `COCc1cc(=O)oc2cc(Nc3ncc(F)c(Nc4ccc5c(COC)cc(=O)oc5c4)n3)ccc12` [Compound R926620] belongs over 10 µM; to `Cc1cc(Nc2nc(Nc3cccc(OCCN4CCOCC4)c3)ncc2F)cc(C)c1O` [Compound R940256], 4.75 µM. `COC(=O)c1cc(Nc2nc(Nc3ccc4c(c3)OCCO4)ncc2F)cn1C` [Compound R935166]: the IC50 was over 10 µM. On the same count and under the same terms, in the case of `COC(=O)c1ccc(Cn2cc3ccc(Nc4ncc(F)c(Nc5ccc(OC(C)C)cc5)n4)cc3n2)c(OC)c1` [Compound R935338] it was 5.89 µM; in that of `CC(C)Oc1ccc(Nc2nc(Nc3cccc(OCC(=O)O)c3)ncc2F)cc1` [Compound R926731], over 10 µM. Same read-out and setting: in the case of `CNC(=O)COc1cccc(Nc2ncc(F)c(Nc3ccc4c(c3)C(=NO)CCO4)n2)c1` [Compound R950348] it was 0.224 µM; in that of `CNC(=O)COc1cccc(Nc2ncc(F)c(Nc3ccc(OC)c(C(F)(F)F)c3)n2)c1` [Compound R926835], 3.58 µM.

Regarding `CCOC(=O)COc1ccc(Nc2ncc(Br)c(Nc3cccc(O)c3)n2)cc1` [Compound R926396], the half-inhibitory concentration (IC50) came out at 6.59 µM. On the same count and under the same terms, in the case of `CCOC(=O)c1ncn2c1COc1c(Nc3nc(Nc4cccc(OCC(=O)NC)c4)ncc3F)cccc1-2` [Compound R909265] it was 12 µM; in that of `O=C(COc1cccc(Nc2ncc(F)c(Nc3cccc(O)c3)n2)c1)NCC(O)CO` (stereo not drawn) [Compound R926746], 3.7 µM.

In turn, `COC(=O)c1cc(COc2cccc(Nc3ncc(F)c(Nc4ccc5c(c4)OCCO5)n3)c2)co1` [Compound R935207] had an IC50 of over 10 µM.

Compound `CCOC(=O)COc1cccc(Nc2ncc(F)c(Nc3ccc(-n4cnc(Cl)c4Cl)cc3)n2)c1` [Compound R926809] had a concentration for half-maximal inhibition (IC50) of over 10 µM.

For `Oc1cccc(Nc2nc(Nc3cc(Br)cc(C(F)(F)F)c3)ncc2F)c1` [Compound R926846], the half-maximal inhibitory concentration (IC50) is over 10 µM. On the same count and under the same terms, in the case of `COCOc1ccc(Nc2nc(Nc3cccc(O)c3)ncc2F)c(F)c1` [Compound R926680] it was 5.7 µM; in that of `N#Cc1cnc(Nc2ccc(OCC(=O)N3CCCCC3)cc2)nc1Nc1ccc(OCC(=O)N2CCCCC2)cc1` [Compound R925855], over 10 µM. Still for that read-out and setting: in the case of `COC(=O)Cn1ncc2cc(Nc3nc(Nc4cccc(O)c4)ncc3F)ccc21` [Compound R935250] it was 6.24 µM; in that of `CNC(=O)c1cc2cccc(Nc3ncc(F)c(Nc4ccc5c(c4)OCCO5)n3)c2[nH]1` [Compound R926815], over 10 µM. On the same count and under the same terms, in the case of `CNC(=O)COc1cccc(Nc2ncc(F)c(Nc3ccc(C#N)c(C)c3)n2)c1` [Compound R926851] it was 3.09 µM. In turn, `Cc1ccc(Nc2ncc(F)c(Nc3ccc(C)c(O)c3)n2)cc1O` [Compound R926341] came in with a 50% inhibitory concentration (IC50) of 3.68 µM.

`CNC(=O)COc1cccc(Nc2ncc(F)c(Nc3ccc(C)c(O)c3)n2)c1` [Compound R926753] showed a concentration for half-maximal inhibition (IC50) of 0.393 µM. Same read-out and setting: in the case of `O=C(NC(CO)CO)c1cc2cc(Nc3ncc(F)c(Nc4ccc5c(c4)OCCO5)n3)ccc2o1` [Compound R926785] it was 2.58 µM; in that of `CNC(=O)COc1cccc(Nc2ncc(F)c(Nc3cccc(OC)c3)n2)c1` [Compound R926738], 2.22 µM; in that of `CNC(=O)COc1cccc(Nc2ncc(F)c(Nc3cccc(CN)c3)n2)c1` [Compound R940309], over 10 µM. On to `Oc1cccc(Nc2ncc(F)c(Nc3ccc(OCc4nc(-c5ccccc5)no4)cc3)n2)c1` [Compound R935138], for which half-maximal inhibition (IC50) was put at 0.46 µM. On the same count and under the same terms, in the case of `OCCCn1ncc2ccc(Nc3ncc(F)c(Nc4cccc(O)c4)n3)cc21` [Compound R935293] it was 1.34 µM; in that of `CNC(=O)COc1cccc(Nc2ncc(F)c(Nc3cnc4c(c3)OCCN4)n2)c1` [Compound R945263], 4.47 µM. The compound `CCOC(=O)C1CCN(C(=O)c2cccc(Nc3nc(Nc4cccc(OCC(=O)NC)c4)ncc3F)c2)CC1` [Compound R926941] yielded an IC50 of over 10 µM. The same measure, in the same setting: to `Fc1cnc(Nc2ccc3c(c2)OCCO3)nc1Nc1ccc2[nH]ncc2c1` [Compound R935267] belongs 3.93 µM; to `Cn1nc(I)c2cc(Nc3ncc(F)c(Nc4ccc(I)c(O)c4I)n3)ccc21` [Compound R935221], over 10 µM. The compound `O=C(c1cc2cc(Nc3ncc(F)c(Nc4cccc(O)c4)n3)ccc2o1)N1CCOCC1` [Compound R926488] returned an IC50 of 2.43 µM.

In turn, `CNC(=O)COc1cccc(Nc2ncc(F)c(Nc3ccc(F)c(C)c3)n2)c1` [Compound R926923] had a half-inhibitory concentration (IC50) of 7.2 µM. Same read-out and setting: to `CNC(=O)COc1cccc(Nc2ncc(F)c(Nc3ccc(C(F)(F)F)cc3)n2)c1` [Compound R926880] belongs 6.24 µM; to `CNC(=O)COc1cccc(Nc2nc(Nc3cc(OC)cc(OC)c3)ncc2F)c1` [Compound R926810], 5.07 µM; to `CN1CCN(C(=O)CNc2cccc(Nc3ncc(F)c(Nc4cccc(O)c4)n3)c2)CC1` [Compound R950223], 2.77 µM. Same read-out and setting: to `CC(C)(C)c1cccc(Nc2nc(Nc3cccc(OCCO)c3)ncc2F)c1` [Compound R940282] belongs 6.71 µM. The same measure, in the same setting: to `CC(=O)Nc1cccc(N(C(C)=O)c2ncc(F)c(N(C(C)=O)c3cccc(NC(C)=O)c3)n2)c1` [Compound R950244] belongs over 10 µM; to `CNC(=O)COc1cccc(Nc2ncc(F)c(Nc3ccc4c(c3)C(=NOC)CCO4)n2)c1` [Compound R950356], 5.73 µM; to `CNC(=O)COc1cccc(Nc2ncc(F)c(Nc3ccc4c(c3)OCC(=O)N4C)n2)c1` [Compound R909261], 2.94 µM. In turn, `O=C(COc1cccc(Nc2ncc(F)c(Nc3ccc4c(c3)OCCO4)n2)c1)N1CCNCC1` [Compound R926503] came in with a half-inhibitory concentration (IC50) of 2.6 µM. On the same count and under the same terms, in the case of `CNC(=O)COc1ccc(Nc2ncc(F)c(Nc3ccc4c(c3)OCCO4)n2)cc1` [Compound R926708] it was 3.3 µM; in that of `CCOC(=O)COc1ccc(Nc2nc(Cl)cc(NCC(=O)OC)n2)cc1` [Compound R926555], over 10 µM.

Turning to `O=C(CNc1cccc(Nc2ncc(F)c(Nc3ccc4c(c3)OCCO4)n2)c1)N(CCO)CCO` [Compound R950199], the concentration for half-maximal inhibition (IC50) was 3.21 µM. On the same count and under the same terms, to `CNC(=O)COc1cccc(Nc2ncc(F)c(Nc3cccc(SC(F)(F)F)c3)n2)c1` [Compound R926925] belongs 5.87 µM; to `CNC(=O)COc1cccc(Nc2ncc(F)c(Nc3ccc4[nH]ncc4c3)n2)c1` [Compound R935279], 1.98 µM; to `CNC(=O)COc1cccc(Nc2ncc(F)c(Nc3cccc(N)c3)n2)c1` [Compound R950262], 3.15 µM. The same measure, in the same setting: to `C[C@H](Nc1nc(Nc2ccc3c(c2)OCCO3)ncc1F)[C@H](O)c1ccccc1` [Compound R925766] belongs over 10 µM; to `COC(=O)COc1ccc(Nc2nc(Nc3ccc(OCC(N)=O)cc3)ncc2F)cc1` [Compound R945060], 6.08 µM; to `CNCCNC(=O)CNc1cccc(Nc2ncc(F)c(Nc3ccc4c(c3)OCCO4)n2)c1` [Compound R950196], 2.08 µM. The same measure, in the same setting: to `CCOC(=O)C(C)(Oc1cccc(Nc2nc(Nc3ccc(OC(C)C)cc3)ncc2F)c1)C(=O)OCC` [Compound R935187] belongs over 10 µM.

Staying with this test, now noted: Homo sapiens, Jurkat.
In turn, `O=C(c1ccccc1)c1cccc(Nc2ncc(F)c(Nc3cccc(C(=O)c4ccccc4)c3)n2)c1` [Compound R950377] returned a half-maximal inhibitory concentration (IC50) of 5.96 µM. That is a single-digit micromolar value.

For the compound `Oc1cccc(Nc2nc(Nc3cccc(-c4cnco4)c3)ncc2F)c1` [Compound R926831], the midpoint of inhibition, the IC50, lay at 1.27 µM. The same measure, in the same setting: in the case of `OCCOc1cccc(Nc2ncc(F)c(Nc3ccc4oc(CO)cc4c3)n2)c1` [Compound R935178] it was 3.04 µM; in that of `Fc1cnc(Nc2ccc(N3CCN(Cc4ccccc4)CC3)cc2)nc1Nc1ccc(N2CCN(Cc3ccccc3)CC2)cc1` [Compound R945152], over 10 µM; in that of `Fc1cnc(NCC2COc3ccccc3O2)nc1Nc1ccc2c(c1)OCCO2` (stereo not drawn) [Compound R950206], over 10 µM.

The compound `COC(=O)Cc1ccc(Nc2ncc(F)c(Nc3ccc(CC(=O)OC)cc3)n2)cc1` [Compound R926605] registered a concentration for half-maximal inhibition (IC50) of over 10 µM. On the same count and under the same terms, to `Cc1ccc(N)cc1Nc1ncc(F)c(Nc2cc(N)ccc2C)n1` [Compound R950157] belongs over 10 µM. `COC(=O)c1cccc(Nc2ncc(F)c(Nc3cccc(C(=O)OC)c3)n2)c1` [Compound R945035] yielded a 50% inhibitory concentration (IC50) of over 10 µM. Still for that read-out and setting: to `COc1ccc(-c2ccccc2)cc1Nc1ncc(Br)c(Nc2cc(-c3ccccc3)ccc2OC)n1` [Compound R925799] belongs over 10 µM. For the compound `COC(=O)c1ccc(Nc2ncc(F)c(Nc3ccc(C(=O)OC)cc3)n2)cc1` [Compound R945034], the IC50 is over 10 µM. The same measure, in the same setting: to `Fc1cnc(NC(c2ccccc2)c2ccccc2)nc1NC(c1ccccc1)c1ccccc1` [Compound R935005] belongs over 10 µM. Same read-out and setting: to `Fc1cnc(NCc2csc3ccccc23)nc1NCc1csc2ccccc12` [Compound R945145] belongs over 10 µM; to `Nc1cc(Nc2ncc(F)c(Nc3cc(N)cc(C(F)(F)F)c3)n2)cc(C(F)(F)F)c1` [Compound R950140], 22.4 µM.

Regarding `COC(=O)c1cc2cc(Nc3nc(Nc4ccc5c(c4)OCCO5)ncc3F)ccc2o1` [Compound R926485], the IC50 was over 10 µM. In the case of `COc1cc(Nc2ncc(F)c(Nc3cccc(O)c3)n2)c(OC)cc1Cl` [Compound R926857], the IC50 was over 10 µM. As for `Nc1cc(Nc2ccnc(Nc3ccc(Nc4ccccc4)c(N)c3)n2)ccc1Nc1ccccc1` [Compound R950123], the IC50 is over 10 µM.
